Numbers after ± are expanded uncertainties.
How the values were obtained:
[1] = refractive index (Na D-line) (dimensionless); conditions: 100 kPa, Liquid, Standard Abbe refractometry
[2] = 100 kPa, Liquid; for speed of sound: Frequency=3 MHz, Sing-around technique in a fixed-path interferometer; for mass density: Vibrating tube method
[3] = refractive index (Na D-line) (dimensionless); xn = mol fraction of the nth substance listed; conditions: 100 kPa, Liquid, Standard Abbe refractometry, x2 = 0
[4] = xn = mol fraction of the nth substance listed; conditions: 100 kPa, Liquid, x2 = 0; for speed of sound: Frequency=3 MHz, Sing-around technique in a fixed-path interferometer; for mass density: Vibrating tube method

refractive index ([1]; 298.15 K) | refractive index ([1]; 308.15 K) | refractive index ([1]; 318.15 K) | speed of sound ([2]; 298.15 K) [m/s] | mass density ([2]; 298.15 K) [kg/m3] | speed of sound ([2]; 308.15 K) [m/s] | mass density ([2]; 308.15 K) [kg/m3] | speed of sound ([2]; 318.15 K) [m/s] | mass density ([2]; 318.15 K) [kg/m3] | refractive index ([3]; 298.15 K) | refractive index ([3]; 308.15 K) | refractive index ([3]; 318.15 K) | speed of sound ([4]; 298.15 K) [m/s] | mass density ([4]; 298.15 K) [kg/m3] | speed of sound ([4]; 308.15 K) [m/s] | mass density ([4]; 308.15 K) [kg/m3] | speed of sound ([4]; 318.15 K) [m/s] | mass density ([4]; 318.15 K) [kg/m3] | SMILES
1.38488 ± 0.0016 | 1.37985 ± 0.0016 | 1.37402 ± 0.0016 | 1121.4 ± 1.3 | 780.72 ± 0.23 | 1082 ± 1.3 | 770.21 ± 0.23 | 1038.2 ± 1.3 | 759.5 ± 0.23 |  |  |  |  |  |  |  |  |  | CC(C)(C)O [2-methylpropan-2-ol]
1.43253 ± 0.0017 | 1.42984 ± 0.0017 | 1.42715 ± 0.0017 | 1485.1 ± 2.3 | 1105.02 ± 1.1 | 1458.5 ± 2.3 | 1098.32 ± 1 | 1433.2 ± 2.3 | 1091.54 ± 1 |  |  |  |  |  |  |  |  |  | CCCCCCCC[n+]1ccn(C)c1.F[B-](F)(F)F [1-methyl-3-octylimidazolium tetrafluoroborate]
 |  |  |  |  |  |  |  |  | 1.39408 ± 0.0016 | 1.38925 ± 0.0016 | 1.38444 ± 0.0016 | 1189 ± 1.4 | 797.82 ± 0.22 | 1155.9 ± 1.3 | 790.63 ± 0.23 | 1118.6 ± 1.3 | 781.98 ± 0.23 | CC(C)CO [2-methyl-1-propanol] + CCCCCCCC[n+]1ccn(C)c1.F[B-](F)(F)F
1.39408 ± 0.0016 | 1.38925 ± 0.0016 | 1.38444 ± 0.0016 | 1189 ± 1.4 | 797.82 ± 0.22 | 1155.9 ± 1.3 | 790.63 ± 0.23 | 1118.6 ± 1.3 | 781.98 ± 0.23 |  |  |  |  |  |  |  |  |  | CC(C)CO [2-methyl-1-propanol]
 |  |  |  |  |  |  |  |  | 1.39728 ± 0.0016 | 1.39324 ± 0.0016 | 1.38911 ± 0.0016 | 1242.4 ± 1.2 | 805.76 ± 0.2 | 1207.5 ± 1.2 | 798.05 ± 0.2 | 1171.5 ± 1.2 | 790.21 ± 0.2 | CCCCO [butan-1-ol] + CCCCCCCC[n+]1ccn(C)c1.F[B-](F)(F)F
1.39728 ± 0.0016 | 1.39324 ± 0.0016 | 1.38911 ± 0.0016 | 1242.4 ± 1.2 | 805.76 ± 0.2 | 1207.5 ± 1.2 | 798.05 ± 0.2 | 1171.5 ± 1.2 | 790.21 ± 0.2 |  |  |  |  |  |  |  |  |  | CCCCO [butan-1-ol]
 |  |  |  |  |  |  |  |  | 1.38488 ± 0.0016 | 1.37985 ± 0.0016 | 1.37402 ± 0.0016 | 1121.4 ± 1.3 | 780.72 ± 0.23 | 1082 ± 1.3 | 770.21 ± 0.23 | 1038.2 ± 1.3 | 759.5 ± 0.23 | CC(C)(C)O [2-methylpropan-2-ol] + CCCCCCCC[n+]1ccn(C)c1.F[B-](F)(F)F

— the NIST ThermoML archive (doi:10.1016/j.tca.2016.03.026)
